In PMC8317065, “UPLC-MS/MS Method for Analysis of Endocannabinoid and Related Lipid Metabolism in Mouse Mucosal Tissue” (Frontiers in Physiology, 2021):

Experiments:
MAG biosynthesis (DGL) = experiment: THL oral gavage: levels of MAGs in jejunum mucosa, lung and plasma; assay type: in vivo, mouse
Protocol: (§1) Adult C57BL/6J male mice were food-deprived for 24 h prior to harvest with ad libitum access to water. To prevent coprophagia, animals were maintained on elevated wire-bottom cages for a 72-hour acclimation period and during the 24-hour food deprivation. One hour prior to harvest, mice received an oral gavage (100 μL of 10 mg/mL) of the DGL inhibitor, THL, in polyethylene glycol (PEG) or PEG alone as control. Jejunum intestinal epithelium and lungs were harvested as described above (see section “Tissue Harvest and Preparation for Enzyme Assays”).
(§2) Frozen tissue samples were weighed and homogenized in 1.0 mL of methanol containing the internal standards [^2H5]-2-AG (500 pmol), [^2H4]-AEA (1 pmol), and [^2H4]-OEA (10 pmol). Lipids were extracted using chloroform (2.0 mL) prior to being washed with 1.0 mL 0.2-micron ultra-purified water. Following centrifugation (1,500 × g, 15 min, 4°C), the lower organic phase was collected and dried under N2 steam (99.998% pure). A second chloroform wash (1.0 mL) was then performed followed by another centrifugation (1,500 × g, 15 min, 4°C) and collection of the lower phase. Samples were reconstituted in 2.0 mL of chloroform and purified via open-bed silica gel column chromatography. Columns were washed with a 9:1 chloroform:methanol mixture to elute MAGs and FAEs for collection. Collected eluates were dried under N2 steam (99.998% pure) and resuspended in 0.2 mL of methanol:chloroform (1:1) prior to analysis via UPLC-MS/MS (see section “Quantitation of MAGs and FAEs”).
(§3) Data was acquired using equipment described above (see section “UPLC-MS/MS Detection of Analytes”) and using the elution protocol described above (see section “Quantitation of MAG Biosynthetic Enzyme Activity Assay Products”). Cone voltage and collision energy for each analyte are as follows, respectively: AEA = 30 v, 14 v; [^2H4]-AEA = 26 v, 16v; OEA = 28 v, 16 v; [^2H4]-OEA = 48 v, 14 v; DHEA = 30 v, 50 v; 2-AG (20:4) = 30 v, 12 v; [^2H5]-2-AG = 25 v, 44v; 2-DG (22:6) = 34 v, 14 v; 2-PG (16:0) = 18 v, 10 v; 2-OG (18:1) = 42 v, 10 v; 2-LG (18:2) = 30 v, 10 v. MS/MS detection was in positive ion mode and capillary voltage set at 0.1 kV. Extracted ion chromatograms were used to quantify AEA (m/z = 348.3 > 62.0), [^2H4]-AEA (m/z = 352.3 > 66.1), OEA (m/z = 326.4 > 62.1), [^2H4]-OEA (m/z = 330.4 > 66.0), DHEA (m/z = 372.3 > 91.0), 2-AG (m/z = 379.3 > 287.3), [^2H5]-2-AG (m/z = 384.3 > 93.4), 2-DG (m/z = 403.3 > 311.1), 2-PG (m/z = 331.3 > 239.3), 2-OG (m/z = 357.4 > 265.2), and 2-LG (m/z = 355.3 > 263.3). Quantitation occurred using a stable isotope dilution method to detect protonated adducts of the ions [M + H] + in MRM mode. Acyl migration is known to occur in many MAG species following silica-gel purification, therefore the sum of 1-AG and 2-AG, 1-PG and 2-PG, 1-OG and 2-OG, and 1-DG and 2-DG are reported ([Stella et al., 1997]). The established lower limit of quantitation (LLOQ: signal to noise ratio >10) for 2-AG, 2-DG, 2-PG, 2-OG, and 2-LG was 0.5 pmol. The LLOQ for AEA, OEA, and DHEA was 0.008 pmol.

FAE metabolism = experiment: THL oral gavage: levels of FAEs in jejunum mucosa, lung and plasma; assay type: in vivo, mouse
Protocol: as §1, §2, §3

[1] = THL 1 mg oral, 1 h prior to tissue harvest

CCCCCCCCCCC[C@@H](C[C@@H]1OC(=O)[C@H]1CCCCCC)OC(=O)[C@H](CC(C)C)NC=O [THL, tetrahydrolipstatin]
2-LG level in lung (MAG biosynthesis (DGL); THL 1 mg oral gavage 1 h prior to harvest, vehicle 0.51 ± 0.10): 1.13 ± 0.35 nmol/g
2-DG level in lung (MAG biosynthesis (DGL); THL 1 mg oral gavage 1 h prior to harvest, vehicle 1.17 ± 0.07): 1.02 ± 0.07 nmol/g
2-OG level in lung (MAG biosynthesis (DGL); THL 1 mg oral gavage 1 h prior to harvest, vehicle 1.81 ± 0.13): 2.25 ± 0.37 nmol/g
2-OG level in plasma (MAG biosynthesis (DGL); THL 1 mg oral gavage 1 h prior to harvest, vehicle 2.71 ± 0.68): 1.53 ± 0.22 pmol/mL
2-PG level in lung (MAG biosynthesis (DGL); THL 1 mg oral gavage 1 h prior to harvest, vehicle 3.15 ± 0.26): 2.51 ± 0.15 nmol/g
2-AG level in lung (MAG biosynthesis (DGL); THL 1 mg oral gavage 1 h prior to harvest, vehicle 4.47 ± 0.44): 3.73 ± 0.37 nmol/g
2-AG level in plasma (MAG biosynthesis (DGL); THL 1 mg oral gavage 1 h prior to harvest, vehicle 31.59 ± 3.93): 29.34 ± 2.18 pmol/mL
2-DG level in plasma (MAG biosynthesis (DGL); THL 1 mg oral gavage 1 h prior to harvest, vehicle 44.25 ± 11.63): 32.82 ± 1.67 pmol/mL
2-PG level in plasma (MAG biosynthesis (DGL); THL 1 mg oral gavage 1 h prior to harvest, vehicle 46.63 ± 4.97): 51.99 ± 9.87 pmol/mL
2-LG level in plasma (MAG biosynthesis (DGL); THL 1 mg oral gavage 1 h prior to harvest, vehicle 156.32 ± 27.64): 105.12 ± 11.41 pmol/mL
effect on levels of MAGs in lung vs vehicle (MAG biosynthesis (DGL); [1]): no significant changes
effect on plasma MAGs vs vehicle (MAG biosynthesis (DGL); [1]): No significant changes
effect on levels of all MAGs in jejunum mucosa vs vehicle (MAG biosynthesis (DGL); THL 1 mg oral, 1 h prior to tissue harvest, 24 h food deprived mice): reduced
2-DG level in jejunum mucosa (MAG biosynthesis (DGL); mice food deprived 24 h, THL 1 mg oral gavage 1 h prior to harvest, vehicle 7.53 ± 1.40): 0.85 ± 0.13 nmol/g
2-PG level in jejunum mucosa (MAG biosynthesis (DGL); mice food deprived 24 h, THL 1 mg oral gavage 1 h prior to harvest, vehicle 13.52 ± 2.60): 4.91 ± 0.51 nmol/g
2-AG level in jejunum mucosa (MAG biosynthesis (DGL); mice food deprived 24 h, THL 1 mg oral gavage 1 h prior to harvest, vehicle 45.81 ± 7.02): 8.04 ± 1.52 nmol/g
2-OG level in jejunum mucosa (MAG biosynthesis (DGL); mice food deprived 24 h, THL 1 mg oral gavage 1 h prior to harvest, vehicle 100.71 ± 28.93): 5.56 ± 1.10 nmol/g
2-LG level in jejunum mucosa (MAG biosynthesis (DGL); mice food deprived 24 h, THL 1 mg oral gavage 1 h prior to harvest, vehicle 194.08 ± 40.11): 24.61 ± 7.48 nmol/g
AEA level in jejunum mucosa (FAE metabolism; THL 1 mg oral gavage 1 h prior to harvest, vehicle 2.85 ± 0.29): 2.41 ± 0.24 pmol/g
AEA level in lung (FAE metabolism; THL 1 mg oral gavage 1 h prior to harvest, vehicle 3.14 ± 0.14): 2.85 ± 0.08 pmol/g
AEA level in plasma (FAE metabolism; THL 1 mg oral gavage 1 h prior to harvest, vehicle 3.76 ± 0.07): 3.11 ± 0.50 pmol/mL
DHEA level in plasma (FAE metabolism; THL 1 mg oral gavage 1 h prior to harvest, vehicle 6.41 ± 0.76): 5.62 ± 0.43 pmol/mL
DHEA level in lung (FAE metabolism; THL 1 mg oral gavage 1 h prior to harvest, vehicle 14.25 ± 2.18): 16.13 ± 1.19 pmol/g
DHEA level in jejunum mucosa (FAE metabolism; THL 1 mg oral gavage 1 h prior to harvest, vehicle 14.53 ± 1.25): 18.97 ± 5.08 pmol/g
OEA level in plasma (FAE metabolism; THL 1 mg oral gavage 1 h prior to harvest, vehicle 41.19 ± 3.84): 36.12 ± 2.36 pmol/mL
OEA level in jejunum mucosa (FAE metabolism; THL 1 mg oral gavage 1 h prior to harvest, vehicle 52.23 ± 6.73): 46.83 ± 9.00 pmol/g
OEA level in lung (FAE metabolism; THL 1 mg oral gavage 1 h prior to harvest, vehicle 92.06 ± 4.99): 83.75 ± 3.44 pmol/g
effect on levels of FAEs in jejunum mucosa vs vehicle (FAE metabolism; [1]): no changes
effect on levels of FAEs in lung tissue vs vehicle (FAE metabolism; [1]): no changes
effect on plasma concentrations of FAEs vs vehicle (FAE metabolism; [1]): unaffected
